Measurements taken from patent US20050215544A1, “Methods of treating HIV infection” (priority 2004, published 2005).

Key:
HIV-1 LAI [1] = experiment: microbe, parasite or virus in culture; conditions: Human immunodeficiency virus 1, MT2, 120 h
Experimental: (§1) Virus and cell lines. The T-cell lines, MT-2 and PM-1 were obtained through the AIDS Research and Reference Reagent Program, NIAID, and were contributed by Dr. D. Richman and Dr. R. Gallo, respectively. Both cell lines were cultured in RPMI 1640 medium supplemented with 10% fetal bovine serum, 2 mM L-glutamine and sub-cultured twice a week. The LAI strain of HIV-1 was obtained from the Fred Hutchinson Cancer Research Center, and the Bal strain was from NIH. Both virus stocks were amplified and titered in MT-2 cells (LAI) and PM-1 cells (Bal) using a virus infectivity assay.
(§2) Drug Susceptibility and Cytotoxicity Assays. For drug susceptibility assays, MT-2 cells were infected with HIV-1 LAI (or PM-1 cells with HIV-1 Bal) at an MOI of 0.005, and seeded into 96-well microtiter plates ([…] cells/ml) containing serial dilutions of test compounds. […] Each drug ratio consisted of an array of 3-fold serial dilutions, and was performed in quadruplicate. The plates were incubated at 37° C./5% CO2. The MT-2 cells infected with HIV-1 LAI were incubated for 5 days. On day-five post-infection, 20 μl from each well was harvested and quantitated by a reverse transcriptase (RT) assay, or in samples involving non-nucleoside RT inhibitors, an MTS assay. The PM-1 cells infected with HIV-1 Bal and used for studying the combinations with CCR5 inhibitors were incubated for six days. On day-six post-infection, 20 μl from each well was harvested, 20- and 50-fold diluted and quantitated by p24 assay. Cytotoxicity assays were performed using uninfected cells, exposed to the same drug combinations, and incubated for six days. Cell viability was determined by an MTS assay. The CC50 values were calculated by using the exponential form of the median effect equation as mentioned below for calculation of EC50.
(§3) In this equation, Fa stands for “fraction affected,” and represents the fraction of the viral load that has been inactivated. […] ED50 is drug concentration that is expected to reduce the amount of virus by 50%, and m is a parameter that reflects the slope of the concentration-response curve.
In carrying out the combination experiments below, the EC50 for Compound 1 and each comparator compound was determined during the course of each study, and used in the subsequent data analysis.

HIV-1 LAI [2] = experiment: Two-drug combination antiviral assay with Compound 1 (combination indices, Chou and Rideout); assay type: cell-based; conditions: combination with Compound 1; for Combination Indices at 50% HIV Inhibition (Confidence Interval) / Combination Indices at 75% HIV Inhibition (Confidence Interval) / Combination Indices at 90% HIV Inhibition (Confidence Interval): 95% CI in parenthesis; for Overall Result of two-drug combination: all ratios and inhibition levels
Experimental: as §1, §2
Analysis of Drug Combination Effects. For determination of CI values, drugs were diluted in a fixed ratio and multiple ratios were analyzed. The drug serial dilutions spanned a range of concentrations near the EC50 value of each compound, so that equivalent antiviral activities could be compared. Concentration-response curves were estimated for each individual drug and every combination using the median-effect equation. The equation was fit using a nonlinear regression routine (Proc Nlin) in PC SAS version 8.01 (SAS Institute Inc., SAS Version 8.01, Cary, NC: SAS Institute Inc., 1990).
as §3
To assess antiviral effects of different drug combination treatments, combination indices (CIs) were calculated according to Chou and Rideout. The combination index was computed as CI=[D]1/[Dm]1+[D]2/[Dm]2
In this equation [Dm]1 and [Dm]2 are the concentrations of drugs that would individually produce a specific level of effect, while [D]1 and [D]2 are the concentrations of drugs in combination that would produce the same level of effect.
Theoretically, additivity is implied if the CI is equal to one, synergy if the CI is less than one, and antagonism if the CI is greater than one. […] At best, we can construct a range that contains the likely values for the CI, given the noise in the data. In this report, these ranges are reported in parentheses next to each point estimate of the CI. […] If the range fell entirely above 1.0, we would infer antagonistic behavior. If the range were to include 1.0, we would infer additivity.

[3] = EC50 ratio 1:1 (Compound 1 to comparator)
[4] = EC50 ratio 1:2.5 (Compound 1 to comparator)
[5] = EC50 ratio 2.5:1 (Compound 1 to comparator)

SMILES	EC50 (HIV-1 LAI [1])	Combination Indices at 50% HIV Inhibition (Confidence Interval) (HIV-1 LAI [2]; [3])	Combination Indices at 75% HIV Inhibition (Confidence Interval) (HIV-1 LAI [2]; [3])	Combination Indices at 90% HIV Inhibition (Confidence Interval) (HIV-1 LAI [2]; [3])	Combination Indices at 50% HIV Inhibition (Confidence Interval) (HIV-1 LAI [2]; [4])	Combination Indices at 75% HIV Inhibition (Confidence Interval) (HIV-1 LAI [2]; [4])	Combination Indices at 90% HIV Inhibition (Confidence Interval) (HIV-1 LAI [2]; [4])	Combination Indices at 50% HIV Inhibition (Confidence Interval) (HIV-1 LAI [2]; [5])	Combination Indices at 75% HIV Inhibition (Confidence Interval) (HIV-1 LAI [2]; [5])	Combination Indices at 90% HIV Inhibition (Confidence Interval) (HIV-1 LAI [2]; [5])	Overall Result of two-drug combination (HIV-1 LAI [2])	Overall Result of two-drug combination (HIV-1 LAI [2]; listed as delavirdine)
COC(=O)N[C@H](C(=O)N[C@@H](Cc1ccccc1)[C@@H](O)CN(Cc1ccc(-c2ccccn2)cc1)NC(=O)[C@@H](NC(=O)OC)C(C)(C)C)C(C)(C)C [Atazanavir]	0.5 nM	0.76 (0.64, 0.89)	0.89 (0.69, 1.10)	1.07 (0.68, 1.46)	0.28 (0.25, 0.31)	0.38 (0.33, 0.44)	0.54 (0.42, 0.66)	0.08 (0.07, 0.09)	0.14 (0.12, 0.17)	0.25 (0.18, 0.33)	Additive-	
Nc1nc(NC2CC2)c2ncn([C@H]3C=C[C@@H](CO)C3)c2n1 [Abacavir]	528 nM	0.18 (0.13, 0.23)	0.47 (0.30, 0.64)	1.23 (0.52, 1.94)	0.34 (0.27, 0.41)	0.64 (0.45, 0.83)	1.22 (0.65, 1.79)	0.23 (0.19, 0.28)	0.42 (0.30, 0.53)	0.75 (0.42, 1.07)	Additive-	

Further lines, with some results ahead:

EC50 (HIV-1 LAI [1])	SMILES	Combination Indices at 50% HIV Inhibition (Confidence Interval) (HIV-1 LAI [2]; [3])	Combination Indices at 75% HIV Inhibition (Confidence Interval) (HIV-1 LAI [2]; [3])	Combination Indices at 90% HIV Inhibition (Confidence Interval) (HIV-1 LAI [2]; [3])	Combination Indices at 50% HIV Inhibition (Confidence Interval) (HIV-1 LAI [2]; [4])	Combination Indices at 75% HIV Inhibition (Confidence Interval) (HIV-1 LAI [2]; [4])	Combination Indices at 90% HIV Inhibition (Confidence Interval) (HIV-1 LAI [2]; [4])	Combination Indices at 50% HIV Inhibition (Confidence Interval) (HIV-1 LAI [2]; [5])	Combination Indices at 75% HIV Inhibition (Confidence Interval) (HIV-1 LAI [2]; [5])	Combination Indices at 90% HIV Inhibition (Confidence Interval) (HIV-1 LAI [2]; [5])	Overall Result of two-drug combination (HIV-1 LAI [2])	Overall Result of two-drug combination (HIV-1 LAI [2]; listed as delavirdine)
644 nM	O=c1[nH]cnc2c1ncn2[C@H]1CC[C@@H](CO)O1 [Didanosine]	0.91 (0.74, 1.09)	0.88 (0.65, 1.11)	0.88 (0.52, 1.24)	0.22 (0.19, 0.25)	0.18 (0.14, 0.22)	0.16 (0.10, 0.21)	1.02 (0.83, 1.22)	0.96 (0.70, 1.21)	0.91 (0.53, 1.29)	Additive-	
99 nM	CC(C)Nc1cccnc1N1CCN(C(=O)c2cc3cc(NS(C)(=O)=O)ccc3[nH]2)CC1 [Delavirdine]	0.79 (0.55, 1.03)	0.59 (0.35, 0.84)	0.45 (0.16, 0.73)	0.99 (0.72, 1.26)	0.90 (0.56, 1.23)	0.81 (0.34, 1.29)	0.56 (0.28, 0.84)	0.51 (0.16, 0.86)	0.45 (0.00, 0.95)	Additive-	additive to synergistic
30 nM	Nc1ccn([C@@H]2CS[C@H](CO)O2)c(=O)n1 [Lamivudine]	0.57 (0.41, 0.73)	0.73 (0.44, 1.02)	1.00 (0.37, 1.62)	0.17 (0.13, 0.21)	0.33 (0.23, 0.43)	0.70 (0.33, 1.06)	0.18 (0.13, 0.22)	0.38 (0.26, 0.49)	0.85 (0.40, 1.29)		
